{"source": "patent US20200216499A1", "about": "“ANGIOTENSIN-(1-7) ANALOGS AND METHODS RELATING THERETO” (WAKE FOREST UNIVERSITY HEALTH SCIENCES, priority 2015, published 2020)", "key": {"[1]": {"molecular_target": "human ACE (Homo sapiens, UniProt P12821)", "sequence (P12821 30-1306)": "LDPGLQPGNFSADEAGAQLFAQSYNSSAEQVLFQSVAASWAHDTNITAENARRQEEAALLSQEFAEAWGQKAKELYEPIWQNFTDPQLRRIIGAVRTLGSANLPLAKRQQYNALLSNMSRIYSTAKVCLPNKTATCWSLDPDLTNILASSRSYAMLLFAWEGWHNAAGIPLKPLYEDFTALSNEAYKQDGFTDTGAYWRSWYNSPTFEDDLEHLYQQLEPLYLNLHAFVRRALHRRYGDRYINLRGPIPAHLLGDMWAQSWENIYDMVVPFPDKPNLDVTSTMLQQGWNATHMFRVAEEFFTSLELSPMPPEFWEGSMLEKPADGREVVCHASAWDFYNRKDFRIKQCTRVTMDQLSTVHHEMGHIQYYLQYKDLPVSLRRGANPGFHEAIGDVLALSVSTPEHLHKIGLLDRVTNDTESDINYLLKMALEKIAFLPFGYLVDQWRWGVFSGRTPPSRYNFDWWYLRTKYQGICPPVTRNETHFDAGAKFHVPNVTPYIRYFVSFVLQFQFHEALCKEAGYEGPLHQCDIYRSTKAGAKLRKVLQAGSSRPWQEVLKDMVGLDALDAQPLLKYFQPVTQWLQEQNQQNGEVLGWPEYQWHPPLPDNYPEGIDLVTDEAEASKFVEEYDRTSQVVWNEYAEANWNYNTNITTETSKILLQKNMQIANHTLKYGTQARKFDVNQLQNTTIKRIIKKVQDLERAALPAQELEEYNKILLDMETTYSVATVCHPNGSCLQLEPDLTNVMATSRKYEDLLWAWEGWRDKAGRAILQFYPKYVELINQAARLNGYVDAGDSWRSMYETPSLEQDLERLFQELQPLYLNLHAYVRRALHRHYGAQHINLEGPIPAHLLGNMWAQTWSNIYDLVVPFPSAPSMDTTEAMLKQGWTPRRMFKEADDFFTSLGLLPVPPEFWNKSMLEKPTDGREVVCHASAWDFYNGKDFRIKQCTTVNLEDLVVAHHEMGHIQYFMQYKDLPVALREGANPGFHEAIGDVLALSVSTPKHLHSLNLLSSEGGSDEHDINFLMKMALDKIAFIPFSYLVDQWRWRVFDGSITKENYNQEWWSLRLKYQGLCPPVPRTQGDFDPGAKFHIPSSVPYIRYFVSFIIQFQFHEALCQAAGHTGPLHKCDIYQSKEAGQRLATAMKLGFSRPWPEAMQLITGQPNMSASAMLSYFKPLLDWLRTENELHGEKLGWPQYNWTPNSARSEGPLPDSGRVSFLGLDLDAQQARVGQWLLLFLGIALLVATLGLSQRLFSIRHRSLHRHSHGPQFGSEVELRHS", "test": "Degradation by ACE (HPLC of reaction products)", "assay_type": "in vitro ADME", "details": "100 μM peptide, 1.0 μg human ACE, reaction buffer pH 7.4, 2 hours at 37° C., HPLC UV 220 nm", "protocol": "FIGS. 2A-4D show graphs depicting enzymatic digestion by angiotensin converting enzyme (ACE) of Ang-(1-7), Ang-(1-7)-ACCA^5, Ang-(1-7)-ACCA^6, and Ang-(1-7)-ACCA^3, respectively, in accordance with one aspect. The peptides (100 μM) were incubated with human ACE (1.0 μg) in reaction buffer for 2 hours at 37° C. in a final volume of 100 μL, and the reaction products assessed by HPLC (UV 220 nm).\nAnalogs with ACCA at position 5 (Ang-(1-7)-ACCA^5), position 6 (Ang-(1-7)-ACCA^6), and position 3 (Ang-(1-7)-ACCA^3) were assessed to determine whether the analogs were degraded by ACE. Ang-(1-7) served as the control. Specifically, 100 μM of one of the three analogs or Ang-(1-7) was incubated with 1.0 μg of human ACE in reaction buffer (25 mM Hepes, 125 mM NaCl, 10 μM ZnCl2, pH 7.4) for 2 hours at 37° C. in a final volume of 100 μL. The resultant reaction products were separated by high pressure liquid chromatography (HPLC) on a Phenomenex Aeris Peptide C18 column using a Shimadzu Prominence system and detected by UV analysis at 220 nm."}, "[2]": {"molecular_target": "T1, Human DPP III (Homo sapiens, UniProt Q9NY33)", "T1 sequence (Q9NY33 1-737)": "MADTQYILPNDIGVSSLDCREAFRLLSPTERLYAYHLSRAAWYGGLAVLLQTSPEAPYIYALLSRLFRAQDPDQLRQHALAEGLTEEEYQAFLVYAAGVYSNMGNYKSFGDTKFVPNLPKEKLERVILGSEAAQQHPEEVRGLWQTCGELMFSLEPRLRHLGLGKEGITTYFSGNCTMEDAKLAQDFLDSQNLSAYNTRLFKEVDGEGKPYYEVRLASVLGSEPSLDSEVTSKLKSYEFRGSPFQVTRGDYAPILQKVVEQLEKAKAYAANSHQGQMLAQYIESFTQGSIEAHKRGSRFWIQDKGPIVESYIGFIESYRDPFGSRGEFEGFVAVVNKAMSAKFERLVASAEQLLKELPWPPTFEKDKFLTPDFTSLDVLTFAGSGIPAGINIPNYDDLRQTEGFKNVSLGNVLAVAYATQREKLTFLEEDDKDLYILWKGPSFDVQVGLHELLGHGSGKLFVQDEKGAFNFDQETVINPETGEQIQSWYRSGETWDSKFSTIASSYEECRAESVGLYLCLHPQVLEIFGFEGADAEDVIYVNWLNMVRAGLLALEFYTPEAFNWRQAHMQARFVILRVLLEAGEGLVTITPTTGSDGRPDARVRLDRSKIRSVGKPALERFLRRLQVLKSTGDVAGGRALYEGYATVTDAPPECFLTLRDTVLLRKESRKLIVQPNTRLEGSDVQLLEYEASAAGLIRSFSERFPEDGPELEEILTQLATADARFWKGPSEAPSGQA", "test": "Degradation by DPP III (HPLC of reaction products)", "assay_type": "in vitro ADME", "details": "100 μM peptide, 1.0 μg human DPP III, 2 hours at 37° C., HPLC UV 220 nm", "protocol": "FIGS. 3A-5D show graphs depicting enzymatic digestion by dipeptidyl peptidase III (DPE III) of Ang-(1-7), Ang-(1-7)-ACCA^5, Ang-(1-7)-ACCA^6, and Ang-(1-7)-ACCA^3, respectively, in accordance with one aspect. The peptides (100 μM) were incubated with human DPE III (1.0 μg) in reaction buffer for 2 hours at 37° C. in a final volume of 100 μL, and the reaction products assessed by HPLC (UV 220 nm).\nThe Ang-(1-7) and the analogs Ang-(1-7)-ACCA^5, Ang-(1-7)-ACCA^6, and Ang-(1-7)-ACCA^3 were assessed to determine whether they were resistant to metabolism by the enzyme dipeptidyl peptidase III (DPP III). DPP III metabolizes Ang-(1-7) at different sites as compared to ACE (Chappell et al., Front Endocrinol (Lausanne) 4:201 (pp. 1-13) (2014)). The incubation conditions and detection methods for the metabolism by DPP III were identical to that used to assess degradation by ACE as described in Example 3."}, "[3]": {"details": "cited from earlier work"}}, "note": "Entries after “also recorded” stand apart in the source; their conditions may differ."}
{"smiles": "CC[C@H](C)[C@H](NC(=O)[C@H](Cc1ccc(O)cc1)NC(=O)[C@@H](NC(=O)[C@H](CCCNC(=N)N)NC(=O)[C@@H](N)CC(=O)O)C(C)C)C(=O)N[C@@H](Cc1c[nH]cn1)C(=O)N1CCC[C@H]1C(=O)O", "note": "[Ang-(1-7), Asp-Arg-Val-Tyr-Ile-His-Pro]", "values": [{"measurement": "degradation / resistance to metabolism by ACE", "setting": "[1]", "result": "degraded to Ang-(1-5) and the dipeptide His-Pro; also recorded: readily degraded"}, {"measurement": "degradation / resistance to metabolism by DPP III", "setting": "[2]", "result": "sequentially degraded; also recorded: readily degraded"}, {"measurement": "half-life in plasma", "setting": "[3]", "result": 30, "unit": "min"}]}
